The record followed here is patent publication US4771123A, “Peptide thioneamides as selective substrates for cysteine proteases” (Enzyme Systems Products, Inc., priority 1986, dated 1988).

Type in all cases: biochemical
Assay [1] deals with Trypsin. Put plainly: Hydrolysis of oxyamide and thioneamide substrates by trypsin (catalytic constants, Table I). Conditions: pH 7.5, Tris buffer (50 mM), 10 mM CaCl2, 12.5% DMSO. The protocol:
(§1) Table I below provides a comparison between hydrolysis rates of trypsin and papain acting on two different oxyamides and on their corresponding thioneamides. Trypsin was used at pH 7.5 in a Tris buffer (50 mM), with 10 mM CaCl2, and 12.5% DMSO. Papain was used at pH 6.5 in a thiol buffer (52 mM NaH2 PO4, 31 mM dithiothreitol, 2.1 mM EDTA) and 12.5% DMSO. Table I lists the catalytic constants kcat (moles product formed per second per mole enzyme), KM (M), and kcat /KM (M^-1 sec^-1) for the indicated substrates.

Assay [2] concerns the target T1, Papain (Carica papaya, UniProt P00784).
T1 sequence (P00784 134-345): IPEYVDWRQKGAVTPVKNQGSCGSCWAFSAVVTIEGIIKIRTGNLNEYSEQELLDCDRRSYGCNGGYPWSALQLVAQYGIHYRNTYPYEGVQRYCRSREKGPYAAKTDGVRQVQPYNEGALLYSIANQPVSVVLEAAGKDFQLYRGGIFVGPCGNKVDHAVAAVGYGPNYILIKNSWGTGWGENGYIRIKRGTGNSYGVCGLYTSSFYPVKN
Put plainly: Hydrolysis of oxyamide and thioneamide substrates by papain (catalytic constants, Table I). Particulars: pH 6.5, thiol buffer (52 mM NaH2PO4, 31 mM dithiothreitol, 2.1 mM EDTA), 12.5% DMSO. The protocol: as §1

Assay [3] addresses T1, Papain. In words: Selective detection assay, rate of AIE formation with papain alone (Table II). Conditions: Papain 6.85×10^-6 M; thiol buffer pH 6.5, 2.5% DMSO; substrate 2.46×10^-4 M (Cbz-Lys-AIE) or 2.53×10^-4 M (Cbz-Lys.PSI.[CS]-AIE). Here is the method: (§2) A thiol buffer at pH 6.5 was used (52 mM NaH2 PO4, 31 mM dithiothreitol, 2.1 mM EDTA) with 2.5% DMSO. The enzyme concentrations in the assays were 6.85×10^-6 M for papain, and 1.28×10^-6 M for trypsin. Substrate concentrations were 2.46×10^-4 M for Cbz-Lys-AIE, and 2.53×10^-4 M for Cbz-Lys.PSI.[CS]-AIE. Rates are given in terms of moles AIE formed per minute.

Assay [4] relates to Trypsin. In words: Selective detection assay, rate of AIE formation with trypsin alone (Table II). Particulars: Trypsin 1.28×10^-6 M; thiol buffer pH 6.5, 2.5% DMSO; substrate 2.46×10^-4 M (Cbz-Lys-AIE) or 2.53×10^-4 M (Cbz-Lys.PSI.[CS]-AIE). Here is the method: as §2

By Km is commonly meant the concentration of substrate that gives half-maximal velocity. For the compound Cbz--Phe--Arg--AIE, in the assay with Trypsin [1], the Michaelis constant (Km) was determined as 502 µM, the kcat was 9.03 × 10^-1 moles product formed per secon and the “kcat /KM” value was 1800 M⁻¹ s⁻¹. Moreover, at Papain [2], the Km was determined as 813 µM, the kcat was 3.53 × 10^1 moles product formed per secon and the “kcat /KM” value was determined as 43500 M⁻¹ s⁻¹.
Take “Cbz-Lys.PSI.[CS]-AIE.HCl [Cbz--Lys.psi.[CS]--AIE]”: in the assay with Trypsin [1], the “rate of product formation by trypsin (in words)” value was “NO RATE”. For the same compound, on Papain [2], the Michaelis constant (Km) was found to be 213 µM, the kcat was 4.00 × 10^-3 moles product formed per secon and the “kcat /KM” value was 18.8 M⁻¹ s⁻¹. Also, on Papain [3], the “Rate of AIE formation” value is 1.15 moles AIE formed per minute. The “Rate of AIE formation” value with Trypsin [4] is reported as 0.00 moles AIE formed per minute.
As for `Br.COC(=O)c1cc(NC(=S)[C@H](CCCNC(=N)N)NC(=O)[C@H](Cc2ccccc2)NC(=O)OCc2ccccc2)cc(C(=O)OC)c1` [Cbz--Phe--Arg.psi.[CS]--AIE, Cbz-Phe-Arg.PSI.[CS]-AIE.HBr], the “rate of product formation by trypsin (in words)” value in the assay with Trypsin [1] was “NO RATE”. For the same compound, on Papain [2], the Michaelis-Menten constant (Km) was determined as 574 µM, the kcat was 5.35 moles product formed per secon and the “kcat /KM” value turned out to be 0.0932 M⁻¹ s⁻¹.
For the compound `COC(=O)c1cc(NC(=O)[C@H](CCCCN)NC(=O)OCc2ccccc2)cc(C(=O)OC)c1` [Cbz--Lys--AIE, Cbz-Lys-AIE], in the assay with Trypsin [1], the Km stood at 168 µM, the kcat was 1.15 × 10^-1 moles product formed per secon and the “kcat /KM” value was 686 M⁻¹ s⁻¹. On Papain [2], the Km amounted to 281 µM, the kcat is 2.95 × 10^-2 moles product formed per secon and the “kcat /KM” value was 105 M⁻¹ s⁻¹. Further, at Papain [3], the “Rate of AIE formation” value is 6.03 moles AIE formed per minute.
